Reference: US20140093585A1, “PARP INHIBITORS FOR THE TREATMENT OF CIPN” (AbbVie Inc., priority 2011, published 2014)
Entries after “also recorded” stand apart in the source; their conditions may differ.

How the values were obtained:
[1] = test system: vincristine model of chemotherapy-induced pain; assay: Vincristine model of chemotherapy-induced pain: mechanical threshold with von Frey monofilaments; format: in vivo, rats; details: for development of mechanical allodynia (mechanical threshold, von Frey): vincristine 30 ug/kg/day for 12 days; for reversal of mechanical allodynia (von Frey), positive control: rats receiving vincristine, morphine 6 mg/kg i.p. acutely on each day of testing
Procedure: Rats were administered a PARP Inhibitor, 2-[(2R)-2-methylpyrrolidin-2-yl]-1H-benzimidazole-4-carboxamide (Compound A) or 6-fluoro-2-(2-methylpyrrolidin-2-yl)-1H-benzimidazole-4-carboxamide (Compound B), at doses of 25 mg/kg/day or 50 mg/kg/day (i.p.), for two days prior to the initiation of vincristine. After two days or pre-dosing with the PARP inhibitor, two minipumps were implanted in rats. Vincristine was administered via a subcutaneous mini-osmotic pump that delivered 30 ug/kg/day (i.v) for twelve days. PARP Inhibitor, Compound A or Compound B, or vehicle was administered via a subcutaneous mini-osmotic pump that delivered 25 mg/kg/day, 50 mg/kg/day, or vehicle (i.p.) for twelve days. A positive control group of rats receiving vincristine were dosed acutely with morphine (6 mg/kg, i.p.) on each day of testing. A negative control group of rats received saline. Mechanical threshold was determined for all rats using von Frey monofilaments at 5, 9 and 12 days following initiation of vincristine administration (days 7, 11 and 14 of compound delivery, respectively) for Compound A, and at 3, 6 and 10 days following initiation of vincristine administration (days 5, 8 and 12 of compound delivery, respectively) for Compound B. Mechanical allodynia was observed on all testing days in rats treated with vincristine compared to the naïve group.
Rats were administered a PARP Inhibitor, 2-[(2R)-2-methylpyrrolidin-2-yl]-1H-benzimidazole-4-carboxamide (Compound A), at doses of 25 mg/kg/day or 50 mg/kg/day (i.p., bid) for two days prior to the initiation of vincristine. After two days or pre-dosing with ABT-888, two minipumps were implanted in rats. Vincristine was administered via a subcutaneous mini-osmotic pump that delivered 30 ug/kg/day (i.v) for twelve days. Compound A or vehicle was administered via a subcutaneous mini-osmotic pump that delivered 25 mg/kg/day or 50 mg/kg/day (i.p.) for twelve days. A positive control group of rats receiving vincristine were dosed with acutely morphine (6 mg/kg, i.p.) on each day of testing. A negative control group of rats received saline. Mechanical threshold was determined for all rats using von Frey monofilaments on 5, 9 and 12 days following initiation of vincristine administration (days 7, 11 and 14 of compound delivery, respectively). Mechanical allodynia was observed on all testing days in rats treated with vincristine compared to the naïve group.
Vincristine (i.v, […]) was administered by mini-pump for twelve days. Rats were divided into four groups: Group 1: Vehicle; Group 2: 1-(2-fluoro-5-((4-oxo-3,4,5,6,7,8-hexahydrophthalazin-1-yl)methyl)phenyl)pyrrolidine-2,5-dione (Compound D), 25 mg/kg/day; Group 3: Compound D, 50 mg/kg/day; Group 4: Vehicle+Positive control (morphine). Groups 2 and 3 were pretreated with their respective dose of Compound D (either 25 mg/kg or 50 mg/kg, ip) for two days prior to co-dosing with vincristine. Rats in the positive control group were dosed with vehicle by mini-pump and were acutely administered morphine on day of testing. Mechanical threshold was determined using von Frey monofilaments on days 5, 9, and 12 post-mini-pump implantation. Plasma and brain were collected on day 12. […] Anti-nociceptive efficacy was dose-dependent and observed on days 5, 9, and 12 (FIG. 10).

PAR (pADPr) = assay: PAR levels in glabrous hindpaw skin biopsies, ELISA measuring pADPr; format: in vivo, rats; details: Example 4; skin biopsies on day 12 of Example 3; Compound A 25 mg/kg and 50 mg/kg; FIG. 8
Procedure: Following behavioral testing on day 12 in Example 3, skin biopsies were taken from glabrous hindpaw skin from rats in the naïve, vincristine, and vincristine+Compound A groups (n=5 per group). PAR levels were assessed using ab ELISA assay to measure pADPr as previously described (Liu et al., 2008). PAR levels in skin were increased by vincristine, as compared to the saline group.

cisplatin model = assay: Cisplatin model: behavioral assays (von Frey mechanical threshold, paw withdrawal latency from radiant heat); format: in vivo; details: mice, cisplatin cumulative 23 mg/kg, Compound C 25 or 50 mg/kg/day i.p.
Procedure: (§1) Mice were administered a PARP Inhibitor, 2-[(2S)-2-methylpyrrolidin-2-yl]-1H-benzimidazole-4-carboxamide (Compound C) at doses of 25 mg/kg/day or 50 mg/kg/day (i.p.) for two days prior to the initiation of cisplatin. The 50 mg/kg dose of Compound C was administered (i.p.) for two days prior to oxaliplatin administration. After two days of pre-dosing with the PARP Inhibitor, mice were co-administered Compound C with cisplatin or oxaliplatin for 5 days (daily injections, i.p.), followed by 5 days off, followed by 5 daily injections (i.p.). Cumulative dose of cisplatin was 23 mg/kg. Cumulative dose of oxaliplatin was 30 mg/kg. Behavioral assays were performed on all groups of mice before dosing, and then at weeks 3, 6, and 8. Behavioral assays including determining mechanical threshold with von Frey monofilaments, determining, latency to paw withdrawal from a radiant heat source, and number of paw lifts from a cold plate.

oxaliplatin model = assay: Oxaliplatin model: behavioral assays (von Frey mechanical threshold, paw lifts from cold plate); format: in vivo; details: mice, oxaliplatin cumulative 30 mg/kg, Compound C 50 mg/kg i.p.
Procedure: as §1

[2] = test system: digital nerve SNAP amplitude, cisplatin-treated mice; assay: Nerve conduction study: sensory nerve action potential (SNAP) recording from the digital nerve after cisplatin; format: in vivo; details: Example 5, cisplatin 2.3 mg/kg/day i.p., Compound C 25 or 50 mg/kg/day (i.p., bid), week 3, FIG. 9
Procedure: Mice were administered a PARP Inhibitor, 2-[(2S)-2-methylpyrrolidin-2-yl]-1H-benzimidazole-4-carboxamide (Compound C), at doses of 25 mg/kg/day or 50 mg/kg/day (i.p., bid), for two days prior to the initiation of cisplatin. After two days or pre-dosing with Compound C, mice were co-dosed with the PARP inhibitor (25 mg/kg/day or 50 mg/kg/day) and cisplatin (2.3 mg/kg/day, i.p.). The dosing regimen consisted for 5 daily co-injections, followed by 5 days off, and then a repeat of 5 daily co-injection. Nerve conduction studies were performed after the final injections in week 3. Sensory nerve action potential (SNAP) recordings were made from the digital nerve. Cisplatin induced a decrease in amplitude in SNAP recording from the digital nerve, an effect that was prevented by 2-[(2S)-2-methylpyrrolidin-2-yl]-1H-benzimidazole-4-carboxamide (Compound C) treatment (FIG. 9).

CC1(c2nc3c(C(N)=O)cc(F)cc3[nH]2)CCCN1 (stereo not drawn) [Compound B, 6-fluoro-2-(2-methylpyrrolidin-2-yl)-1H-benzimidazole-4-carboxamide]
development of mechanical allodynia (mechanical threshold, von Frey) ([1]; Example 1, rats, Compound B 25 or 50 mg/kg/day i.p., 2 days pre-dosing then mini-pump 12 days, tested 3, 6 and 10 days after vincristine start, FIG. 2): attenuated development of mechanical allodynia; also recorded: prevention of vincristine-mediated pain

C[C@]1(c2nc3c(C(N)=O)cccc3[nH]2)CCCN1 [Compound A, 2-[(2R)-2-methylpyrrolidin-2-yl]-1H-benzimidazole-4-carboxamide]
development of mechanical allodynia (mechanical threshold, von Frey) ([1]; Example 1, rats, Compound A 25 or 50 mg/kg/day i.p., 2 days pre-dosing then mini-pump 12 days, tested 5, 9 and 12 days after vincristine start, FIG. 1): attenuated development of mechanical allodynia; also recorded: prevention of vincristine-mediated pain | development of mechanical allodynia (mechanical threshold, von Frey) ([1]; Example 3, rats, Compound A 25 or 50 mg/kg/day (i.p., bid pre-dosing 2 days, then mini-pump 12 days), tested days 5, 9 and 12, FIG. 7): attenuated development of mechanical allodynia; also recorded: prevention of vincristine-mediated pain | vincristine-mediated PAR activation (PAR levels) in rat glabrous skin (PAR (pADPr)): significantly reduced vincristine-mediated PAR activation; also recorded: prevention of vincristine-mediated increase in PAR levels in skin

CN1CC[C@]23c4c5ccc(O)c4O[C@H]2[C@@H](O)C=C[C@H]3[C@H]1C5 [Morphine, morphine, reference compound]
reversal of mechanical allodynia (von Frey), positive control ([1]; Example 1): fully reversed mechanical allodynia on all testing days | reversal of mechanical allodynia (von Frey), positive control ([1]; Example 3): fully reversed mechanical allodynia on all testing days

C[C@@]1(c2nc3c(C(N)=O)cccc3[nH]2)CCCN1 [Compound C, 2-[(2S)-2-methylpyrrolidin-2-yl]-1H-benzimidazole-4-carboxamide]
development of mechanical allodynia (von Frey) (cisplatin model; weeks 3, 6 and 8): attenuated development of mechanical allodynia; also recorded: attenuation of cisplatin-mediated mechanical allodynia | development of heat hyperalgesia (latency to paw withdrawal from radiant heat source) (cisplatin model; weeks 3 and 6): attenuated development of heat hyperalgesia; also recorded: attenuation of cisplatin-mediated heat hyperalgesia | development of cold hyperalgesia (number of paw lifts from cold plate) (oxaliplatin model; week 6): attenuated development of cold hyperalgesia; also recorded: attenuation of oxaliplatin-mediated cold allodynia | development of mechanical allodynia (von Frey) (oxaliplatin model; weeks 3 and 6): attenuated development of mechanical allodynia; also recorded: attenuation of oxaliplatin-mediated mechanical allodynia | cisplatin-induced decrease in amplitude in SNAP recording from the digital nerve [2]: prevented; also recorded: prophylactic effect

O=C1CCC(=O)N1c1cc(Cc2n[nH]c(=O)c3c2CCCC3)ccc1F [Compound D, 1-(2-fluoro-5-((4-oxo-3,4,5,6,7,8-hexahydrophthalazin-1-yl)methyl)phenyl)pyrrolidine-2,5-dione]
vincristine-induced mechanical allodynia (mechanical threshold, von Frey) ([1]; Example 6, rats, vincristine i.v. by mini-pump 12 days, Compound D 25 or 50 mg/kg/day, 2 days ip pretreatment, days 5, 9 and 12 post-mini-pump implantation, FIG. 10): attenuated vincristine-induced mechanical allodynia; also recorded: dose-dependent; also recorded: prevention of vincristine-mediated pain
